Consider five compounds from patent publication US5225411A, “Disubstituted polymethyleneimines” (priority 1990, dated 1993).

The subject of test [1] is murine leukaemia P 388/ADR 10. Put plainly: Evaluation of the increase in cytotoxicity of adriamycin on the line P 388/ADR-10 in vitro (reversion factor). The test is classed as cell-based. Conditions: adriamycin, P 388/ADR-10, 48 h, TOX = toxic. On the procedure:
In this study, the cytotoxicity of adriamycin was measured in the absence and in the presence of the reversing compound.
The compounds tested for their capacity to reverse MDR are added at the same time as the cytotoxic agent. The cells are then incubated for 48 hours.

Test [2] deals with Chinese Hamster Pulmonary Line DC-3F/AD. Put plainly: Increase in the cytotoxicity of actinomycin D on the Chinese hamster pulmonary line DC-3F/AD.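 Also: DC-3F/AD is an extremely resistant cell line whose resistance factor exceeds 10,000.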 The test is classed as cell-based. As to conditions: 4 days.
Excerpt: The cytotoxic agent used was actinomycin D.
Line DC-3F/AD is an extremely resistant line. Its resistance factor is higher than 10,000.
In another test the test system is line DC-3F/AD. The experiment in a line: Flow cytometry, increase in fluorescence of ADR on the line DC-3F/AD. Conditions: ADR 50 μM, 5 h. It is filed as cell-based, Chinese Hamster. On the procedure: (§1) By measuring that fluorescence it is possible to obtain a relative measurement of the intracellular concentration of ADR.
(§2) […] After 5 hours' incubation, the intracellular uptake of adriamycin was evaluated by FCM.
(§3) The analysis of each of the samples was carried out on a total of 10,000 cells at a speed of 1000 cells/sec.
(§4) The results were presented in the form of linear histograms of the intracellular ADR fluorescence.
(§5) Expression of the Results
(§6) For each of the histograms, the channel mean fluorescence was determined by the apparatus information system. For all experiments:
(§7) A negative control (cells without ADR) fixed the autofluorescence threshold.
(§8) A positive control (cells with ADR) determined the MEAN value=MN1.
(§9) The "test" tubes (cells with ADR and with compound) were used to determine, for each of the compounds and at each of the concentrations, the MEAN values=MN2.
(§10) The results are expressed in the form of variations from the mean fluorescence obtained for each of the "test" tubes (MN2) in relation to the mean fluorescence obtained with the […] (MNl) : VAR-MEAN=MN2 -MN1. The parameter expressed is thus the increase in the fluorescence of adriamycin in the presence of the tested compounds.

The test system of another test is line P 388/ADR 10. Put plainly: Flow cytometry, increase in fluorescence of ADR on the line P 388/ADR 10. Conditions: ADR 50 μM, 5 h. The test is classed as cell-based, murine. On the procedure:
as §1, §2, §3, §4, §5, §6, §7, §8, §9, §10

For the compound `C=CCNc1nc(NCC=C)nc(N2CCC(SCCC(c3ccccc3)c3ccccc3)CC2)n1` [Example 2, 1-[4,6-bis(allylamino)-2-s-triazinyl]-4-(3,3-diphenylpropylthio)piperidine], the “Reversion Factor (RF)” value worked out at 15.4 in test [1] (compound 2.5 μM); 65.1 in test [1] (compound 5 μM); 86.4 in test [1] (compound 10 μM); 17 in test [2] (compound 5 μM); 171 in test [2] (compound 10 μM). Moreover, the “Increase in fluorescence of ADR (VAR-MEAN = MN2 - MN1)” value (shortened to “Increase in fluorescence of ADR”) in the test on line DC-3F/AD (compound 2 μM) turned out to be 0.2; in the test on line DC-3F/AD (compound 5 μM), 10.4; in the test with line DC-3F/AD (compound 10 μM), 25.1; with line DC-3F/AD (compound 20 μM), 35.0.

For the compound `C=CCNc1nc(NCCC)nc(NC2CCN(CC(c3ccccc3)c3ccccc3)CC2)n1` [Example 11, 4-(4-allylamino-6-propylamino-2-s-triazinylamino)-1-(2,2-diphenylethyl)piperidine], the “Reversion Factor (RF)” value is 87 in test [1] (compound 2.5 μM); 65.2 in test [1] (compound 5 μM); “TOX” in test [1] (compound 10 μM); 281 in test [2] (compound 5 μM); 926 in test [2] (compound 10 μM). For the same compound, the “Increase in fluorescence of ADR” value in the test with line DC-3F/AD (compound 2 μM) was 12.6; with line DC-3F/AD (compound 5 μM) it was 18.9; with line DC-3F/AD (compound 10 μM) it was 29.9; with line DC-3F/AD (compound 20 μM), 40.5.

On to `CCCCc1oc2ccccc2c1C(=O)c1cc(I)c(OCCN(CC)CC)c(I)c1` [AMIODARONE, reference compound], for which the “Reversion Factor (RF)” value in test [1] (compound 2.5 μM) is reported as 37.7; in test [1] (compound 5 μM) it was 104.7; in test [1] (compound 10 μM), “TOX”; in test [2] (compound 5 μM), 298; in test [2] (compound 10 μM), 388; in test [2] (compound 20 μM), “TOX”. Also, the “Increase in fluorescence of ADR” value in the test with line P 388/ADR 10 (compound 2 μM) worked out at 33.40; in the test on line P 388/ADR 10 (compound 5 μM) it was 65.25; with line P 388/ADR 10 (compound 10 μM), 76.33; with line P 388/ADR 10 (compound 20 μM) it was 95.85; in the test with line DC-3F/AD (compound 2 μM) it was 8.80; in the test with line DC-3F/AD (compound 5 μM) it was 16.65. The “Increase in fluorescence of ADR” value in the test with line DC-3F/AD (compound 10 μM) was 21.55; in the test on line DC-3F/AD (compound 20 μM) it was 26.35.

On to `C=CCNc1cc(N2CCC(NCCC(c3ccccc3)c3ccccc3)CC2)nc(NCC=C)n1` [Example 9, 1-(bis-2,4-allylamino-6-pyrimidinyl)-4-(3,3-diphenylpropylamino)piperidine], for which the “Reversion Factor (RF)” value in test [1] (compound 2.5 μM) is on record as 80.4; in test [1] (compound 5 μM), “TOX”; in test [1] (compound 10 μM), “TOX”; in test [2] (compound 2.5 μM) it was 94; in test [2] (compound 5 μM), 472; in test [2] (compound 10 μM), “TOX”. Moreover, the “Increase in fluorescence of ADR” value in the test with line P 388/ADR 10 (compound 2 μM) is 39.2; in the test with line P 388/ADR 10 (compound 5 μM) it was 55.8; in the test with line P 388/ADR 10 (compound 10 μM), 65.8; in the test with line P 388/ADR 10 (compound 20 μM), “TOX”; in the test on line DC-3F/AD (compound 2 μM), 7.2; in the test on line DC-3F/AD (compound 5 μM), 15.1. In addition, the “Increase in fluorescence of ADR” value in the test with line DC-3F/AD (compound 10 μM) is 16.3; with line DC-3F/AD (compound 20 μM), 26.2.

`C=CCNc1nc(NCC=C)nc(N2CCC(NCCC(c3ccc(OC)c(OC)c3)c3ccc(OC)c(OC)c3)CC2)n1` [Example 12, 1-[4,6-bis(allylamino)-2-s-triazinyl]-4-[3,3-bis(3,4-dimethoxyphenyl)propylamino]piperidine]: the “Reversion Factor (RF)” value in test [1] (compound 2.5 μM) is recorded as 1.4; in test [1] (compound 5 μM), 8; in test [1] (compound 10 μM), “TOX”; in test [2] (compound 5 μM) it was less than 16.5; in test [2] (compound 10 μM) it was less than 16.5. Moreover, the “Increase in fluorescence of ADR” value is 6.1 in the test with line DC-3F/AD (compound 2 μM), 3.8 in the test on line DC-3F/AD (compound 5 μM), 5.5 in the test with line DC-3F/AD (compound 10 μM) and 9.6 in the test on line DC-3F/AD (compound 20 μM).
